In paper PMC11855478, “Bicyclic N,S-Acetals Containing Fused Cysteine-Amide System as New Heterocyclic Class Targeting Human Farnesyltransferase (FTase-h)” (International Journal of Molecular Sciences, 2025):

Tests used:
[1] = tested on: panel of 60 human cancer cell lines; assay: NCI 60 cell panel one dose screen (whole panel); type: cell-based; set-up: Delta (One Dose Mean Graph): unit not given here; settings: 1.00E-5 Molar one dose; for Range (One Dose Mean Graph): in % (unit assumed); for Mean Growth Percent: mean over tested cell lines
Method in brief: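 Single-dose screen at 10 µM across the NCI 60 human cancer cell line panel; 48 h compound exposure with growth measured by sulforhodamine B assay.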

MOLT-4 (Leukemia) = assay: NCI one dose, MOLT-4; type: cell-based, human; settings: MOLT-4, 1.00E-5 Molar one dose
Method in brief: (§1)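 Human cancer lines from the NCI 60 panel; compound added, 48 h incubation, SRB assay for growth inhibition.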

SR (Leukemia) = assay: NCI one dose, SR; type: cell-based, human; settings: 1.00E-5 Molar one dose
Method in brief: as §1

[2] = tested on: EKVX (Non-Small Cell Lung Cancer); assay: NCI one dose, EKVX; type: cell-based, human; settings: 1.00E-5 Molar one dose
Method in brief: as §1

[3] = tested on: HOP-62 (Non-Small Cell Lung Cancer); assay: NCI one dose, HOP-62; type: cell-based, human; settings: HOP-62, 1.00E-5 Molar one dose
Method in brief: as §1

[4] = tested on: NCI-H322M (Non-Small Cell Lung Cancer); assay: NCI one dose, NCI-H322M; type: cell-based, human; settings: 1.00E-5 Molar one dose
Method in brief: as §1

[5] = tested on: NCI-H460 (Non-Small Cell Lung Cancer); assay: NCI one dose, NCI-H460; type: cell-based, human; settings: NCI-H460, 1.00E-5 Molar one dose
Method in brief: (§2)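 Sulforhodamine B protein staining measured cell growth after cells from the NCI 60-line panel were exposed to compound for 48 h.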

HCT-15 (Colon Cancer) = assay: NCI one dose, HCT-15; type: cell-based, human; settings: HCT-15, 1.00E-5 Molar one dose
Method in brief: as §1

SF-268 (CNS Cancer) = assay: NCI one dose, SF-268; type: cell-based, human; settings: SF-268, 1.00E-5 Molar one dose
Method in brief: as §1

SF-295 (CNS Cancer) = assay: NCI one dose, SF-295; type: cell-based, human; settings: SF-295, 1.00E-5 Molar one dose
Method in brief: as §2

SF-539 (CNS Cancer) = assay: NCI one dose, SF-539; type: cell-based, human; settings: SF-539, 1.00E-5 Molar one dose
Method in brief: as §1

SNB-19 (CNS Cancer) = assay: NCI one dose, SNB-19; type: cell-based, human; settings: SNB-19, 1.00E-5 Molar one dose
Method in brief: as §1

SNB-75 (CNS Cancer) = assay: NCI one dose, SNB-75; type: cell-based, human; settings: SNB-75, 1.00E-5 Molar one dose
Method in brief: as §1

U251 (CNS Cancer) = assay: NCI one dose, U251; type: cell-based, human; settings: U251, 1.00E-5 Molar one dose
Method in brief: as §1

LOX IMVI (Melanoma) = assay: NCI one dose, LOX IMVI; type: cell-based, human; settings: 1.00E-5 Molar one dose
Method in brief: as §1

MDA-MB-435 (Melanoma) = assay: NCI one dose, MDA-MB-435; type: cell-based, human; settings: MDA-MB-435, 1.00E-5 Molar one dose
Method in brief: as §2

SK-MEL-5 (Melanoma) = assay: NCI one dose, SK-MEL-5; type: cell-based, human; settings: SK-MEL-5, 1.00E-5 Molar one dose
Method in brief: as §1

UACC-257 melanoma cells = assay: NCI one dose, UACC-257; type: cell-based, human; settings: for Growth Percent: UACC-257, 1.00E-5 Molar one dose
Method in brief: as §1

UACC-62 (Melanoma) = assay: NCI one dose, UACC-62; type: cell-based, human; settings: UACC-62, 1.00E-5 Molar one dose
Method in brief: as §1

OVCAR-4 (Ovarian Cancer) = assay: NCI one dose, OVCAR-4; type: cell-based, human; settings: OVCAR-4, 1.00E-5 Molar one dose
Method in brief: as §1

OVCAR-8 (Ovarian Cancer) = assay: NCI one dose, OVCAR-8; type: cell-based, human; settings: OVCAR-8, 1.00E-5 Molar one dose
Method in brief: as §2

SK-OV-3 (Ovarian Cancer) = assay: NCI one dose, SK-OV-3; type: cell-based, human; settings: SK-OV-3, 1.00E-5 Molar one dose
Method in brief: as §1

CAKI-1 (Renal Cancer) = assay: NCI one dose, CAKI-1; type: cell-based, human; settings: CAKI-1, 1.00E-5 Molar one dose
Method in brief: as §1

RXF 393 (Renal Cancer) = assay: NCI one dose, RXF 393; type: cell-based, human; settings: RXF 393, 1.00E-5 Molar one dose
Method in brief: as §1

TK-10 (Renal Cancer) = assay: NCI one dose, TK-10; type: cell-based, human; settings: TK-10, 1.00E-5 Molar one dose
Method in brief: as §1

MCF7 (Breast Cancer) = assay: NCI one dose, MCF7; type: cell-based, human; settings: MCF7, 1.00E-5 Molar one dose
Method in brief: as §1

[6] = tested on: MDA-MB-231/ATCC (Breast Cancer); assay: NCI one dose, MDA-MB-231/ATCC; type: cell-based, human; settings: 1.00E-5 Molar one dose
Method in brief: as §1

HS 578T (Breast Cancer) = assay: NCI one dose, HS 578T; type: cell-based, human; settings: 1.00E-5 Molar one dose
Method in brief: as §1

BT-549 (Breast Cancer) = assay: NCI one dose, BT-549; type: cell-based, human; settings: BT-549, 1.00E-5 Molar one dose
Method in brief: as §1

T-47D (Breast Cancer) = assay: NCI one dose, T-47D; type: cell-based, human; settings: 1.00E-5 Molar one dose
Method in brief: as §2

[7] = tested on: MDA-MB-468 breast cancer cells; assay: NCI one dose, MDA-MB-468; type: cell-based, human; settings: for Growth Percent: MDA-MB-468, 1.00E-5 Molar one dose
Method in brief: as §1

Row | Compound | Delta (One Dose Mean Graph) [1] | Range (One Dose Mean Graph) [1] | Mean Growth Percent [1] | Growth Percent (MOLT-4 (Leukemia)) | Growth Percent (SR (Leukemia)) | Growth Percent [2] | Growth Percent [3] | Growth Percent [4] | Growth Percent [5] | Growth Percent (HCT-15 (Colon Cancer)) | Growth Percent (SF-268 (CNS Cancer)) | Growth Percent (SF-295 (CNS Cancer)) | Growth Percent (SF-539 (CNS Cancer)) | Growth Percent (SNB-19 (CNS Cancer)) | Growth Percent (SNB-75 (CNS Cancer)) | Growth Percent (U251 (CNS Cancer)) | Growth Percent (LOX IMVI (Melanoma)) | Growth Percent (MDA-MB-435 (Melanoma)) | Growth Percent (SK-MEL-5 (Melanoma)) | Growth Percent (UACC-257 melanoma cells) | also measured
1 | COc1ccc(CNC(=O)[C@@H]2CS[C@@]3(C)c4ccccc4C(=O)N23)cc1OC [4bI] | 38.86 | 57.76 | 93.56% | 76.47% | 75.23% | 107.62% | 97.01% | 96.18% | 103.23% | 112.46% | 99.31% | 102.29% | 99.30% | 96.85% | 110.74% | 93.58% | 100.38% | 105.24% | 88.12% | 73.35% | inhibition at 10 µM (UACC-257 melanoma cells; Homo sapiens, UACC-257, 10 µM single dose, read-out: inhibition of growth of UACC-257 melanoma cells): 27%; Growth Percent (UACC-62 (Melanoma)): 79.36%; Growth Percent (OVCAR-4 (Ovarian Cancer)): 91.78%; Growth Percent (OVCAR-8 (Ovarian Cancer)): 91.42%; Growth Percent (SK-OV-3 (Ovarian Cancer)): 103.22%; Growth Percent (CAKI-1 (Renal Cancer)): 89.36%; Growth Percent (RXF 393 (Renal Cancer)): 104.59%; Growth Percent (TK-10 (Renal Cancer)): 95.68%; Growth Percent (MCF7 (Breast Cancer)): 87.17%; Growth Percent [6]: 98.00%; Growth Percent (HS 578T (Breast Cancer)): 94.35%; Growth Percent (BT-549 (Breast Cancer)): 110.79%; Growth Percent (T-47D (Breast Cancer)): 71.47%; inhibition at 10 µM ([7]; Homo sapiens, MDA-MB-468, 10 µM single dose, read-out: inhibition of growth of MDA-MB-468 breast cancer cells): 30%; Growth Percent [7]: 70.36%
2 | COc1ccccc1CNC(=O)[C@@H]1CS[C@H]2c3ccccc3C(=O)N12 [4aG] | 31.67 | 50.93 | 101.60% | 97.42% | 83.51% | 106.79% | 104.24% | 100.55% | 110.17% | 107.09% | 102.73% | 100.33% | 103.40% | 107.13% | 98.49% | 99.09% | 99.95% | 110.28% | 103.84% | 74.73% | Growth Percent (UACC-62 (Melanoma)): 103.22%; Growth Percent (OVCAR-4 (Ovarian Cancer)): 106.91%; Growth Percent (OVCAR-8 (Ovarian Cancer)): 96.60%; Growth Percent (SK-OV-3 (Ovarian Cancer)): 107.78%; Growth Percent (CAKI-1 (Renal Cancer)): 94.09%; Growth Percent (RXF 393 (Renal Cancer)): 114.62%; Growth Percent (TK-10 (Renal Cancer)): 90.98%; Growth Percent (MCF7 (Breast Cancer)): 102.38%; Growth Percent [6]: 109.17%; Growth Percent (HS 578T (Breast Cancer)): 96.02%; Growth Percent (BT-549 (Breast Cancer)): 110.45%; Growth Percent (T-47D (Breast Cancer)): 98.98%; Growth Percent [7]: 101.62%
3 | C[C@@]12SC[C@@H](C(=O)NCc3cccc(C(F)(F)F)c3)N1C(=O)c1ccccc12 [4bD] | 25.48 | 41.72 | 94.41% | 75.84% | 75.10% | 98.64% | 90.69% | 100.14% | 109.48% | 95.74% | 102.43% | 92.24% | 99.59% | 99.21% | 93.18% | 94.94% | 100.31% | 102.18% | 101.35% | 74.68% | Growth Percent (UACC-62 (Melanoma)): 87.82%; Growth Percent (OVCAR-4 (Ovarian Cancer)): 89.60%; Growth Percent (OVCAR-8 (Ovarian Cancer)): 92.35%; Growth Percent (SK-OV-3 (Ovarian Cancer)): 97.14%; Growth Percent (CAKI-1 (Renal Cancer)): 80.18%; Growth Percent (RXF 393 (Renal Cancer)): 105.49%; Growth Percent (TK-10 (Renal Cancer)): 101.65%; Growth Percent (MCF7 (Breast Cancer)): 85.93%; Growth Percent [6]: 97.63%; Growth Percent (HS 578T (Breast Cancer)): 96.99%; Growth Percent (BT-549 (Breast Cancer)): 100.02%; Growth Percent (T-47D (Breast Cancer)): 89.18%; Growth Percent [7]: 97.93%
4 | COc1ccc(CNC(=O)[C@@H]2CS[C@@]3(C)c4ccccc4C(=O)N23)cc1 [4bF] | 24.39 | 39.02 | 96.71% | 76.38% | 84.33% | 106.83% | 95.58% | 107.95% | 110.45% | 101.20% | 98.37% | 93.44% | 105.73% | 99.83% | 94.53% | 93.45% | 102.28% | 102.01% | 103.30% | 87.83% | Growth Percent (UACC-62 (Melanoma)): 93.24%; Growth Percent (OVCAR-4 (Ovarian Cancer)): 98.29%; Growth Percent (OVCAR-8 (Ovarian Cancer)): 94.06%; Growth Percent (SK-OV-3 (Ovarian Cancer)): 106.02%; Growth Percent (CAKI-1 (Renal Cancer)): 85.69%; Growth Percent (RXF 393 (Renal Cancer)): 95.28%; Growth Percent (TK-10 (Renal Cancer)): 99.99%; Growth Percent (MCF7 (Breast Cancer)): 90.37%; Growth Percent [6]: 93.86%; Growth Percent (HS 578T (Breast Cancer)): 96.39%; Growth Percent (BT-549 (Breast Cancer)): 106.11%; Growth Percent (T-47D (Breast Cancer)): 97.83%; Growth Percent [7]: 86.72%
